# Molecular target: P2X7 (Homo sapiens (Human), UniProt Q99572)
# Assay: P2X7 antagonism in human PBMCs (LPS + Bz-ATP induced IL-1β release, ELISA);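 note: PBMCs from donor human blood, with a further 1.5 h incubation of the cells in the assay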
# Type: cell-based
# Settings: compound 1 μM, LPS 30 ng/ml, Bz-ATP 0.5 mM
# Sequence of P2X7 (Q99572 whole entry): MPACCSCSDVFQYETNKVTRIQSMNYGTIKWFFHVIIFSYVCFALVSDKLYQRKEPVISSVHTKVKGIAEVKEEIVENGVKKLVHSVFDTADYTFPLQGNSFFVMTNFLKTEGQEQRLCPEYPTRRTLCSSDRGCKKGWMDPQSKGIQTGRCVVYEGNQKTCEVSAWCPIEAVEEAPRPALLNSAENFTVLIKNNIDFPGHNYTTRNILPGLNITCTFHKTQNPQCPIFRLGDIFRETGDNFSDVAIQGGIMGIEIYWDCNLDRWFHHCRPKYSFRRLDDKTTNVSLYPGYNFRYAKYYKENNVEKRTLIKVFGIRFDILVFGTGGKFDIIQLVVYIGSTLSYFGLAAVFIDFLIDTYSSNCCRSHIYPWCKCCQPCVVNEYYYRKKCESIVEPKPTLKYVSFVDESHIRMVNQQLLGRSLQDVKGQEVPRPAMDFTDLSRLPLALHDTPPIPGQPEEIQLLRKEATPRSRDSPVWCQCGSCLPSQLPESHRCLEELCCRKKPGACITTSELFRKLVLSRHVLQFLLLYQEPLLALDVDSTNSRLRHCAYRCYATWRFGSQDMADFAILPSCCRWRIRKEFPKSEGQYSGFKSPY
row,SMILES,PBMC 1 μM (% control)
1,"C[C@@H]1c2nnn(-c3cnccn3)c2CCN1C(=O)c1cccc(C(F)(F)F)c1Cl (single isomer, unassigned) [Example 74, (4R*)-5-{[2-Chloro-3-(trifluoromethyl)phenyl]carbonyl}-4-methyl-1-pyrazin-2-yl-4,5,6,7-tetrahydro-1H-[1,2,3]triazolo[4,5-c]pyridine]",102.6 % control
2,"C[C@H]1c2nnn(-c3cnccn3)c2CCN1C(=O)c1cccc(C(F)(F)F)c1Cl (single isomer, unassigned) [Example 75, (4 S*)-5-{[2-Chloro-3-(trifluoromethyl)phenyl]carbonyl}-4-methyl-1-pyrazin-2-yl-4,5,6,7-tetrahydro-1H-[1,2,3]triazolo[4,5-c]pyridine]",5.2 % control

# Same assay, conditions: compound 10 μM, LPS 30 ng/ml, Bz-ATP 0.5 mM
row,SMILES,PBMC 10 μM (% control)
1,"C[C@@H]1c2ncn(-c3ccc(F)cn3)c2CCN1C(=O)c1cccc(C(F)(F)F)c1Cl (single isomer, unassigned) [Example 40, (R*)-(2-chloro-3-(trifluoromethyl)phenyl)(1-(5-fluoropyridin-2-yl)-4-methyl-6,7-dihydro-1H-imidazo[4,5-c]pyridin-5(4H)-yl)methanone]",36.5 % control
2,"C[C@@H]1c2ncn(-c3ccccn3)c2CCN1C(=O)c1cccc(C(F)(F)F)c1F (single isomer, unassigned) [Example 42, (4R*)-5-{[2-Fluoro-3-(trifluoromethyl)phenyl]carbonyl}-4-methyl-1-pyridin-2-yl-4,5,6,7-tetrahydro-1H-imidazo[4,5-c]pyridine]",5.8 % control
3,"C[C@H]1c2ncn(-c3ccccn3)c2CCN1C(=O)c1cccc(C(F)(F)F)c1F (single isomer, unassigned) [Example 43, (4 S*)-5-{[2-Fluoro-3-(trifluoromethyl)phenyl]carbonyl}-4-methyl-1-pyridin-2-yl-4,5,6,7-tetrahydro-1H-imidazo[4,5-c]pyridine]",77.8 % control
4,"C[C@@H]1c2ncn(-c3ccccn3)c2CCN1C(=O)c1cccc(C(F)(F)F)c1Cl (single isomer, unassigned) [Example 44, (4R*)-5-{[2-Chloro-3-(trifluoromethyl)phenyl]carbonyl}-4-methyl-1-pyridin-2-yl-4,5,6,7-tetrahydro-1H-imidazo[4,5-c]pyridine]",44.7 % control
5,"C[C@H]1c2ncn(-c3ccccn3)c2CCN1C(=O)c1cccc(C(F)(F)F)c1Cl (single isomer, unassigned) [Example 45, (4 S*)-5-{[2-Chloro-3-(trifluoromethyl)phenyl]carbonyl}-4-methyl-1-pyridin-2-yl-4,5,6,7-tetrahydro-1H-imidazo[4,5-c]pyridine]",29.4 % control
6,"C[C@@H]1c2ncn(-c3ccc(F)cc3)c2CCN1C(=O)c1cccc(C(F)(F)F)c1Cl (single isomer, unassigned) [Example 46, (4R*)-5-{[2-Chloro-3-(trifluoromethyl)phenyl]carbonyl}-1-(4-fluorophenyl)-4-methyl-4,5,6,7-tetrahydro-1H-imidazo[4,5-c]pyridine]",2.1 % control
7,"C[C@H]1c2ncn(-c3ccc(F)cc3)c2CCN1C(=O)c1cccc(C(F)(F)F)c1Cl (single isomer, unassigned) [Example 47]",−1.1 % control
8,"C[C@H]1c2nnn(-c3cnccn3)c2CCN1C(=O)c1cccc(C(F)(F)F)c1Cl (single isomer, unassigned) [Example 75, (4 S*)-5-{[2-Chloro-3-(trifluoromethyl)phenyl]carbonyl}-4-methyl-1-pyrazin-2-yl-4,5,6,7-tetrahydro-1H-[1,2,3]triazolo[4,5-c]pyridine]",−0.3 % control
9,"C[C@H]1c2nnn(-c3ncccn3)c2CCN1C(=O)c1cccc(C(F)(F)F)c1Cl (single isomer, unassigned) [Example 87, (4S*)-5-{[2-Chloro-3-(trifluoromethyl)phenyl]carbonyl}-4-methyl-1-pyrimidin-2-yl-4,5,6,7-tetrahydro-1H-[1,2,3]triazolo[4,5-c]pyridine]",21.7 % control
10,"CC1c2nnn(-c3ncccn3)c2CCN1C(=O)c1cccc(C(F)(F)F)c1Cl (single isomer, unassigned) [Example 88, (4R*)-5-{[2-Chloro-3-(trifluoromethyl)phenyl]carbonyl}-4-methyl-1-pyrimidin-2-yl-4,5,6,7-tetrahydro-1H-[1,2,3]triazolo[4,5-c]pyridine]",13.3 % control
11,"C[C@H]1Cc2c(nnn2-c2ccccn2)CN1C(=O)c1cccc(C(F)(F)F)c1Cl (single isomer, unassigned) [Example 118, 5-{[2-Chloro-3-(trifluoromethyl)phenyl]carbonyl}-(S*)-6-methyl-1-pyridin-2-yl-4,5,6,7-tetrahydro-1H-[1,2,3]triazolo[4,5-c]pyridine]",12.6 % control
12,"C[C@@H]1Cc2c(nnn2-c2ccccn2)CN1C(=O)c1cccc(C(F)(F)F)c1Cl (single isomer, unassigned) [Example 119, 5-{[2-Chloro-3-(trifluoromethyl)phenyl]carbonyl}-(R*)-6-methyl-1-pyridin-2-yl-4,5,6,7-tetrahydro-1H-[1,2,3]triazolo[4,5-c]pyridine]",20.0 % control
13,"C[C@@H]1c2nnn(-c3cc[nH]n3)c2CCN1C(=O)c1cccc(C(F)(F)F)c1Cl (single isomer, unassigned) [Example 133, (R*)-(2-Chloro-3-(trifluoromethyl)phenyl)(4-methyl-1-(1H-pyrazol-5-yl)-6,7-dihydro-1H-[1,2,3]triazolo[4,5-c]pyridin-5(4H)-yl)methanone]",−0.2 % control
14,"C[C@H]1c2nnn(-c3ccn[nH]3)c2CCN1C(=O)c1cccc(C(F)(F)F)c1Cl (single isomer, unassigned) [Example 134, (S*)-(2-Chloro-3-(trifluoromethyl)phenyl)(4-methyl-1-(1H-pyrazol-5-yl)-6,7-dihydro-1H-[1,2,3]triazolo[4,5-c]pyridin-5(4H)-yl)methanone]",12.3 % control
15,"C[C@@H]1c2nnn(-c3cnccn3)c2CCN1C(=O)c1ccc(F)c(Cl)c1Cl (single isomer, unassigned) [Example 143, (R*)-(2,3-Dichloro-4-fluorophenyl)(4-methyl-1-(pyrazin-2-yl)-6,7-dihydro-1H-[1,2,3]triazolo[4,5-c]pyridin-5(4H)-yl)methanone]",58.0 % control
16,"C[C@H]1c2nnn(-c3cnccn3)c2CCN1C(=O)c1ccc(F)c(Cl)c1Cl (single isomer, unassigned) [Example 144, (S*)-(2,3-Dichloro-4-fluorophenyl)(4-methyl-1-(pyrazin-2-yl)-6,7-dihydro-1H-[1,2,3]triazolo[4,5-c]pyridin-5(4H)-yl)methanone]",19.6 % control
17,"C[C@@H]1c2nnn(-c3cc(F)ccn3)c2CCN1C(=O)c1cccc(C(F)(F)F)c1Cl (single isomer, unassigned) [Example 148, (R*)-(2-Chloro-3-(trifluoromethyl)phenyl)(1-(4-fluoropyridin-2-yl)-4-methyl-6,7-dihydro-1H-[1,2,3]triazolo[4,5-c]pyridin-5(4H)-yl)methanone]",−9.6 % control
18,"C[C@H]1c2nnn(-c3cc(F)ccn3)c2CCN1C(=O)c1cccc(C(F)(F)F)c1Cl (single isomer, unassigned) [Example 149, (S*)-(2-Chloro-3-(trifluoromethyl)phenyl)(1-(4-fluoropyridin-2-yl)-4-methyl-6,7-dihydro-1H-[1,2,3]triazolo[4,5-c]pyridin-5(4H)-yl)methanone]",3.5 % control
